Laboratory results reported in patent US6589992B2, “Inhibiting collagen-induced platelet aggregation” (Parker Hughes Institute, priority 1999, dated 2003).
“Also recorded” adds a separate entry of the source.

Tests used:
[1] = test system: human platelets; experiment: Electron microscopy (HR-LVSEM, TEM) of platelet shape changes; type: cell-based; conditions: 100 μM
Protocol: HR-LVSEM was utilized for topographical imaging of the platelet surface membrane, as previously reported (D'Cruz et al., 1998). […] Treated platelets were then stimulated with collagen (10 μg/mL) or thrombin (0.1 U/mL) for 10 seconds (FIGS. 3A-3F). 3% glutaraldehyde was added to stop the reaction. Samples were prepared for HR-LVSEM as previously described (D'Cruz et al., 1998) and analyzed using a Hitachi S-900 SEM instrument (Hitachi Instruments, Gaithersburg, Md.) at an accelerating voltage of 2 kV and […].
Samples were then prepared for TEM as previously described (White, 1983). Briefly, 0.1% glutaraldehyde was added to stop the reaction. Following a brief centrifugation, the sample pellets were layered with 3% glutaraldehyde for 40 minutes at room temperature. The samples were then postfixed in 1% OsO4 for 1 hour at 4° C., rinsed three times in distilled water at room temperature, dehydrated in a graded ethanol series (25, 50, 75, 90, 95 and 100%) and 100% propylene oxide. The samples were embedded in Embed 812 (Electron Microscopy Science, Washington, Pa.). Silver sections were picked up on mesh grids, stained 10 minutes in 1% uranyle acetate/70% ethanol, and 10 minutes in Reynold's lead citrate. […] True magnifications were determined by photographing a calibration grid at each magnification step on the microscope and using this scale to determine final print enlargements.

[2] = test system: mice; experiment: Tail bleeding time in mice; type: in vivo
Protocol: (§1) Mice were placed in a tube holder and tail bleeding was performed with a 2 mm cut from the protruding tail tip, the tail was placed vertically into 10 mL normal saline in a 37° C. water bath and bleeding times determined as previously described (Teng et al., 1997). Platelet plug formation and clotting times on the eye after retro-orbital venupuncture were evaluated using published methods (Sheu et al., 1995).

[3] = test system: platelets; experiment: Serotonin release from collagen-stimulated platelets; type: cell-based, human; conditions: LFM-A13 treated, N=4
Protocol: Release of serotonin from collagen (10 and 20 μg/mL)-stimulated platelets was measured using a serotonin detection kit (Immunotech, Marseille, France) according to the manufacturer's specifications. Sonicated platelets were used for measurement of the total serotonin content of platelets.

[4] = test system: mice; experiment: Platelet plug formation and clotting time after retro-orbital venupuncture in mice; type: in vivo; conditions: for clotting time % Control / Mean Clotting Time: C57BL/6 mice; for Mean Clotting Time: n = 3
Protocol: as §1
The blood of XID mice clotted approximately two minutes later than the CBA control mice. Following this pattern, blood from chronically treated mice also clotted two minutes later than control. […]

[5] = test system: ICR mice; experiment: Thromboplastin-induced fatal thromboembolism in mice; type: in vivo; conditions: for median survival time / probability of event-free survival after thromboplastin challenge: N=10
Protocol: The mice were challenged with 25 mg/kg thromboplastin (Sigma, St. Louis, Mo.) via a bolus i.v. injection in to the tail vein as previously described (Sato et al., 1998). At the time of thromboembolism-related death, after the thromboplastin injection or elective sacrifice at 48 hours using ketamine/xylazine, all mice were perfused with PBS followed by 4% phosphate buffered formalin. PBS and formalin were pumped through the left ventricle of the heart and allowed to exit through a 3 mm incision through the anterior wall of the right ventricle.

[6] = test system: platelets; experiment: Thrombin-induced platelet aggregation (aggregometer); type: cell-based, human; conditions: thrombin 0.1 U/mL
Protocol: Platelet aggregation with respect to control was monitored in a Chronolog Model 560 Dual Chamber Platelet Aggregometer.
Controls were treated with vehicle (PBS supplemented with 1% DMSO) alone. The treated PRP samples were diluted 1:4 with sterile normal saline and platelets were stimulated with collagen (2 μg/mL or 5 μg/mL, Chronolog Inc., Philadelphia, Pa.) or thrombin (0.1 U/mL, Chronolog Inc., Philadelphia, Pa.) as agonists under stirred conditions. Platelet aggregation was monitored in a platelet aggregometer (Model 560 Dual Chamber-Instrument, Chronolog Ind., Philadelphia, Pa.) for 5 minutes.

[7] = test system: platelets; experiment: Collagen-induced calcium mobilization in platelets (fluorescence); type: cell-based, human; conditions: 100 μM; collagen 20 μg/ml
Protocol: Platelets were loaded with […] (Molecular Probes, Eugene Oreg.) for 15 minutes at 37 degrees C. […] The changes in fluorescence were monitored on a spectrofluorimeter.

[8] = 40 mg/kg, after retroorbital venupuncture

What does the source list for `C/C(O)=C(\C#N)C(=O)Nc1cc(Br)ccc1Br` [LFM-A13, α-cyano-β-hydroxy-β-methyl-N-(2,5-dibromophenyl)-propenamide]?
collagen-induced pseudopod formation ([1]; 30 min, collagen 10 μg/mL, 10 seconds): inhibited collagen-induced pseudopod formation; also recorded: no pseudopods were observed; thrombin-induced shape changes ([1]; thrombin 0.1 U/mL): did not inhibit the thrombin-induced shape changes; prolongation of tail bleeding time versus vehicle ([2]; 20 mg/kg): 4.9 fold; average tail bleeding time ([2]; 20 mg/kg i.v., N=5): 7.4 ± 1.0 min; prolongation of tail bleeding time versus vehicle ([2]; 40 mg/kg): 5.6 fold; average tail bleeding time ([2]; 40 mg/kg i.v., N=5): 8.5 ± 0.6 min; prolongation of tail bleeding time versus vehicle ([2]; 80 mg/kg): 6.3 fold; average tail bleeding time ([2]; 80 mg/kg i.v., N=12): 9.5 ± 0.5 min; serotonin in platelet supernatants [3]: 369 ± 14 nM; clotting (eye clot) time [4, 8]: 2.6 ± 0.4 min; local platelet plug (eye plug) formation time [4, 8]: 45 ± 4 s; clotting time % Control ([4]; 25 mg/kg chronic 36 days): 231%; Mean Clotting Time ([4]; 25 mg/kg chronic 36 days): 3.7 min; clotting time % Control ([4]; 40 mg/kg acute 1 hour): 164%; Mean Clotting Time ([4]; 40 mg/kg acute 1 hour): 2.6 min; median survival time ([5]; LFM-A13 20 mg/kg): 8.0 min; probability of event-free survival after thromboplastin challenge ([5]; LFM-A13 20 mg/kg): 20±13%; median survival time ([5]; LFM-A13 40 mg/kg): > 2880 min; probability of event-free survival after thromboplastin challenge ([5]; LFM-A13 40 mg/kg): 80±13%; drug-related toxic lesions in organs ([5]; LFM-A13 pretreated, thromboplastin-challenged mice): No drug-related toxic lesions were detected; thrombin-induced platelet aggregation, PRP ([6]; PRP treated 20 min or 24 hours): No significant effect; effect on thrombin-induced platelet aggregation ([6]; up to 1000 μM): No significant effect; also recorded: not impaired; collagen-induced calcium mobilization [7]: significantly reduced
